PMC11819963, “In Vitro CO-Releasing and Antioxidant Properties of Sulfonamide-Based CAI-CORMs in a H2O2-Stimulated Human Achilles Tendon-Derived Cell Model” (Molecules, 2025)

Tests used:
hCA IX = hCA IX (Homo sapiens, UniProt Q16790); assay: stopped-flow CO2 hydrase assay, hCA IX; assay type: biochemical; settings: mean from three assays, errors ±5–10%
Procedure: (§1) The CO2 concentrations ranged from 1.7 to 17 mM for the determination of the kinetic parameters and inhibition constants. […] The uncatalysed rates were determined in the same manner and subtracted from the total observed rates. […] The inhibition constants were obtained by non-linear least-squares methods using PRISM 3 and the Cheng–Prusoff equation and represent the mean from at least three different determinations.

hCA XII = hCA XII (Homo sapiens, UniProt O43570); assay: stopped-flow CO2 hydrase assay, hCA XII; assay type: biochemical; settings: mean from three assays, errors ±5–10%
Procedure: as §1

[1] = tested on: reduced myoglobin (deoxy-Mb); assay: myoglobin carbonylation assay (CO release); design: species or system horse; settings: for MbCO formed: after 210 min of incubation, 1:1 CORM–Mb ratio (about 20 μM CORM); for CO-release profile (MbCO formed over time): 1:1 and 1:6 CORM:Mb, up to 300 min, comparison within series
Procedure: To determine the CO-releasing properties of the designed compounds, the myoglobin carbonylation assay was employed, with some deviations from the standard protocol, as previously reported. The analysed compounds were incubated with reduced myoglobin (deoxy-Mb), and spectra were recorded every 30 min up to 300 min. The release of CO was assessed by evaluating the formation of carbonylated myoglobin (Mb-CO) over time (Figure 3). […] The releasing properties of the compounds were also expressed as CO units released after 300 min of incubation with Mb, as reported in Figure S1 (Supplementary Information File).
All the employed reagents were of analytical grade and acquired from Merck (Milan, Italy). Gaseous CO was obtained from Rivoira (Milan, Italy). A Shimadzu UV1900 UV-Vis Spectrophotometer from 275 to 700 nm at the scanning rate of 200 nm/min was used to record UV-Vis absorption spectra in a disposable plastic cuvette (path length 0.44 cm). The second derivative spectra were generated with the Origin Lab software, and the Savitzky–Golay method was applied using 25 data points for the differentiation process. Neither an increase nor a decrease in the number of points caused changes in the wavelength or in the bandwidth. Lyophilised horse heart Mb was dissolved in phosphate-buffered saline flushed with N2 (PBS, 0.01 M, pH 7.4 to a 20–22 μM final concentration). Two millilitres of this freshly prepared stock solution were placed in a cuvette to record the UV-Vis absorption spectrum of met-Mb. Next, the solutions were divided into two halves: 10 μL of sodium dithionite (30 mg/mL) was added to the first half (reference), and the UV–Vis spectrum of deoxy-Mb was registered. After that, the solution was flushed with CO gas, and the Mb-CO spectrum was acquired. Sodium dithionite was added to the second half (sample), and a spectrum was recorded. Afterwards, a CORM DMSO solution was added to a final CORM concentration of 1.67 μM, 3.33 μM or 20 μM and gently mixed. The solution was covered with 300 μL of light mineral oil to avoid CO escaping and oxygenation of Mb, and the absorption spectrum was recorded at t = 0. Spectra were acquired every 30 min for 300 min, keeping the sample at 37 °C. When necessary, a freshly prepared sodium dithionite solution was added. After 300 min, the total Mb concentration at the end of the assay was determined by flushing the sample with CO gas. Mb-CO concentration at each time point was determined, as previously reported. Each experiment was replicated three times, and the data were expressed as mean ± SEM.

[2] = tested on: Human Achilles tendon-derived tenocytes; assay: cell metabolic activity (MTT test), basal conditions; assay type: cell-based; settings: 6.25–50 µM; for cell metabolic activity (MTT): vs untreated control
Procedure: (§3) Human Achilles tendon-derived tenocytes (#TEN-F) were purchased by ZenBio Inc. (Durham, NC, USA) and maintained in complete alpha-MEM (EuroClone, Milan, Italy) supplemented with 10% of heat-inactivated FBS (Gibco, Thermo Fisher Scientific, Waltham, MA, USA) and 1% penicillin/streptomycin (EuroClone, Milan, Italy) at 37 °C and 5% CO2 and used from passage 3 up to passage 6.
(§4) Cells were seeded in 96-well plates (0.5 × 10^4/well) or 6-well plates (0.5 × 10^5/well) (ThermoFisher Scientific, Waltham, MA, USA) and left to adhere overnight at 37 °C and 5% CO2. For cell metabolic activity experiments (MTT test), tenocytes were treated with increasing concentrations of compounds (range 0–50 µM) for 24 and 48 h. Compounds were dissolved in DMSO to obtain a 200 mM stock solution, and they were afterwards diluted in complete alpha-MEM (DMSO final concentration = 0.1%) for further analyses. In a second set of MTT experiments, tenocytes were pre-incubated with 100 µM H2O2 for 3 h. After that, the pre-incubation medium was discarded and replaced with a fresh one containing the proper compound at increasing concentrations for 24 and 48 h. At the established time points, samples were processed for further analyses.
(§5) Tenocytes were seeded in 96 well tissue culture-treated plates (Falcon®, Corning Incorporated, Brooklyn, NY, USA) at 0.5 × 10^4 cells/well. Untreated cells (0 µM) were set as control (100% of cell metabolic activity). At the established time points, the exposure media were replaced by fresh medium containing 3-(4,5-dimethylthiazol-2-yl)-2,5-diphenyltetrazolium bromide (MTT) 0.5 mg/mL (Merck, Darmstadt, Germany) and processed as elsewhere reported [18]. The optical density in each well was measured using a spectrophotometer (Thermo Fisher Scientific, Waltham, MA, USA) at a wavelength of 540 nm. Each experiment was performed three times in triplicates per experimental condition (n = 9).

[3] = tested on: H2O2-stimulated human Achilles tendon-derived tenocytes; assay: cell cycle analysis by flow cytometry (propidium iodide); assay type: cell-based; settings: 48 h, after H2O2 100 µM for 3 h
Procedure: (§2) Compound A and acetazolamide were administered as reference compounds.
The progression of the cell cycle was assessed by flow cytometry, as already reported. Briefly, after the pre-incubation with H2O2 (100 µM for 3 h) and the exposure time (48 h), approximately 0.5 × 10^5 cells/experimental condition were fixed with cold ethanol 70% v/v and afterwards stained with 1 mg/mL propidium iodide (PI) (final concentration 10 µg/mL) and 10 mg/mL RNAse (final concentration 100 µg/mL) and kept overnight at 4 °C in the dark. Each experiment was performed two times in triplicates per experimental condition (n = 6). Cell cycle profiles (1 × 10^4 events/sample) were finally analysed with a CytoFLEX flow cytometer (Beckman Coulter, Indianapolis, IN, USA), and data were quantified using the ModFit LT™ 4.0 software (De Novo Software, Glendale, CA, USA).

[4] = tested on: H2O2-stimulated human Achilles tendon-derived tenocytes; assay: collagen type I secretion (ELISA); assay type: cell-based; settings: 48 h, after H2O2 100 µM for 3 h, compared to untreated cells, normalised on MTT
Procedure: as §2
Amounts of collagen type I secreted in supernatants harvested from 96 well plates were detected by a human collagen type 1 ELISA kit (Cosmo Bio Co., Ltd., Tokyo, Japan; cat. no. ACE-EC1-E105-EX). Samples were pipetted into suitably coated wells as described elsewhere. Each ELISA test was performed three times in duplicates per experimental condition (n = 6). The concentration of collagen type I (µg/mL) was calculated using a standard curve generated with a specific standard provided by the manufacturer by means of the Prism 5.0 software (GraphPad, San Diego, CA, USA).

[5] = tested on: H2O2-stimulated human Achilles tendon-derived tenocytes; assay: cell metabolic activity (MTT test), pre-incubation with H2O2; assay type: cell-based; settings: 6.25–50 µM, after H2O2 100 µM for 3 h
Procedure: as §3, §4, §5

Sequence of hCA XII (O43570 25-354): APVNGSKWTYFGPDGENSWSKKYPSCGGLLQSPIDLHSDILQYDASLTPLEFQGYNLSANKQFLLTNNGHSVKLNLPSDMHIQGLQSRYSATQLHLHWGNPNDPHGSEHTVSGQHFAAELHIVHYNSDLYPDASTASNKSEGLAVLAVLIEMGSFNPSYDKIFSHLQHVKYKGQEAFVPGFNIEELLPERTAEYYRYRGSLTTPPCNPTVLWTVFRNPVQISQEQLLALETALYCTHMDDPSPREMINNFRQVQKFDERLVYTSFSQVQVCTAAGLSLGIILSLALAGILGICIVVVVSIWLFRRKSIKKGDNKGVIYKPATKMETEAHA

Compound	MbCO formed [1] [µM]	cell metabolic activity (MTT) ([2]; 48 h exposure)	cell metabolic activity (MTT) ([5]; 24 h exposure)	cell metabolic activity (MTT) ([5]; 48 h exposure)	other results
4-(Diprop-2′-ynylamino)benzenesulfonamide hexacarbonyldicobalt [1c]	3.66	constantly effective on cell metabolic activity over the concentrations			Ki (hCA IX): 6.2 nM; Ki (hCA XII): 7.5 nM; CO units released ([1]; after 300 min of incubation with Mb, 1:12 CORM:Mb ratio (1.67 μM CORM), 37 °C): 2.3 CO units; cell cycle progression (H2O2-induced G2 increase) [3]: weakly but significantly counteract the H2O2-induced G2 increase; collagen type I secretion [4]: weakly but significantly increases collagen type 1 secretion
CC#CCNc1ccc(S(N)(=O)=O)cc1.[C-]#[O+].[C-]#[O+].[C-]#[O+].[C-]#[O+].[C-]#[O+].[C-]#[O+].[Co].[Co] [2a, 4-(but-2-yn-1-ylamino)benzenesulfonamide hexacarbonyldicobalt]		increases tenocyte metabolic activity to a lesser extent than 1a	best test compounds able to increase cell metabolic activity		CO-release profile (MbCO formed over time) [1]: superimposable profile of MbCO formed over time; cell metabolic activity (MTT) ([2]; 24 h exposure): significantly increase cell metabolic activity; cytotoxicity (MTT) ([2]; 48 h exposure): biocompatible
CC#CCN(CC#CC)c1ccc(S(N)(=O)=O)cc1.[C-]#[O+].[C-]#[O+].[C-]#[O+].[C-]#[O+].[C-]#[O+].[C-]#[O+].[Co].[Co] [2c, 4-(Di(but-2-yn-1-yl)amino)benzenesulfonamide hexacarbonyldicobalt]		constantly effective on cell metabolic activity over the concentrations	best test compounds able to increase cell metabolic activity	the best compound in terms of cell metabolic activity increase	cell metabolic activity (MTT) ([2]; 24 h exposure): significantly increase cell metabolic activity
CCC#CCNc1ccc(S(N)(=O)=O)cc1.[C-]#[O+].[C-]#[O+].[C-]#[O+].[C-]#[O+].[C-]#[O+].[C-]#[O+].[Co].[Co] [3a, 4-(pent-2-yn-1-ylamino)benzenesulfonamide hexacarbonyldicobalt]					CO-release profile (MbCO formed over time) [1]: superimposable profile of MbCO formed over time; cytotoxicity (MTT) ([2]; 24 h exposure): reveal cytotoxicity; cytotoxicity (MTT) ([5]; 24 h exposure): cytotoxic at the highest concentrations used
CCC#CCOc1ccc(S(N)(=O)=O)cc1.[C-]#[O+].[C-]#[O+].[C-]#[O+].[C-]#[O+].[C-]#[O+].[C-]#[O+].[Co].[Co] [3b, 4-(Pent-2-yn-1-yloxy)benzenesulfonamide hexacarbonyldicobalt]					cytotoxicity (MTT) ([2]; 48 h exposure): cytotoxic, already at the lowest concentration
CCC#CCN(CC#CCC)c1ccc(S(N)(=O)=O)cc1.[C-]#[O+].[C-]#[O+].[C-]#[O+].[C-]#[O+].[C-]#[O+].[C-]#[O+].[Co].[Co] [3c, 4-(Di(pent-2-yn-1-yl)amino)benzenesulfonamide hexacarbonyldicobalt]					cytotoxicity (MTT) ([2]; 48 h exposure): cytotoxic, already at the lowest concentration
C#CCNc1ccc(S(N)(=O)=O)cc1 [A, 4-(prop-2-ynylamino)benzenesulfonamide, reference compound]		still ineffective			cell cycle progression (H2O2-induced G2 increase) [3]: ineffective; collagen type I secretion [4]: do not enhance the secretion
CC(=O)Nc1nnc(S(N)(=O)=O)s1 [AAZ, acetazolamide, reference compound]		still ineffective			cytotoxicity (MTT) ([5]; 24 h exposure): cytotoxicity at the highest dose; cytotoxicity (MTT) ([5]; 48 h exposure): cytotoxic at the highest concentration; cell cycle progression (H2O2-induced G2 increase) [3]: ineffective; collagen type I secretion [4]: do not enhance the secretion
C#CCOc1ccc(S(N)(=O)=O)cc1 [B, 4-(prop-2′-ynyloxy)benzenesulfonamide, reference compound]		still ineffective			
C#CCNc1ccccc1.[C-]#[O+].[C-]#[O+].[C-]#[O+].[C-]#[O+].[C-]#[O+].[C-]#[O+].[Co].[Co] [CO-A, N-(prop-2-yn-1-yl)aniline hexacarbonyldicobalt, reference compound]	8.1	extremely active in terms of cell metabolic activity increase	capable of increasing cell metabolic activity	increase cell metabolic activity only at 50 µM	
C#CCOc1ccccc1.[C-]#[O+].[C-]#[O+].[C-]#[O+].[C-]#[O+].[C-]#[O+].[C-]#[O+].[Co].[Co] [CO-B, (Prop-2-yn-1-yloxy)benzene hexacarbonyldicobalt, reference compound]	4	extremely active in terms of cell metabolic activity increase	capable of increasing cell metabolic activity	can increase cell metabolic activity over the concentration range	
C#CCN(CC#C)c1ccccc1.[C-]#[O+].[C-]#[O+].[C-]#[O+].[C-]#[O+].[C-]#[O+].[C-]#[O+].[Co].[Co] [CO-C, N,N-di(prop-2-yn-1-yl)aniline hexacarbonyldicobalt, reference compound]	3.72	extremely active in terms of cell metabolic activity increase	capable of increasing cell metabolic activity	increase cell metabolic activity only at 50 µM	
